According to patent US12064407B2 (priority 2017, dated 2024):
Read-outs that look alike come from different tables or passages of the source.

Tests used:
[1] = system: CaV1.2 CCAT; conditions: 2.5 mM EGTA; 65 mM KCI; 100 μM glutamate; cited from earlier work
[2] = system: SVGA cells
[3] = system: ERVK CTXLP; conditions: ReNcell CX neurospheres, 24 hours, 1 ng/ml TNFα; for TNFα-induced CTXLP expression in human neurospheres: 0.5 μM GA
Description: (§1) The ReNcell CX neuroprogenitor cell line was grown in suspension to produce human neurospheres (approximately 0.5 mm diameter). Neurospheres were treated for 24 hours in neurobasal media alone, or with or without 1 ng/ml TNFα and/or 0.5 μM gambogic acid (GA). Cells were collected, protein extracted, and western blot performed to measure the expression of soluble (standard lysis) and insoluble (RIPA lysis) proteins for ERVK CTXLP, CaV2.2 C-terminal calcium channel-associated transcriptional regulator (CaV2.2 CCAT) and NOGO-A, as compared to β-actin loading control.

[4] = system: NOGO-A; conditions: 24 hours, GA 0.1, 0.25, 1 and 2.5 μM
Description: The ERVK-expressing NCCIT teratocarcinoma cell line was grown in a monolayer in RMPI 1640 media supplemented with FetalGro. Cells were treated for 24 hours with increasing doses of gambogic acid (GA, 0.1, 0.25, 1 and 2.5 μM). Cells were collected, protein extracted, and western blot performed to measure the expression of ERVK CTXLP, CaV2.2 C-terminal calcium channel-associated transcriptional regulator (CaV2.2 CCAT) and NOGO-A, as compared to β-actin loading control.

[5] = system: CTXLP; test: Endogenous CTXLP in SVGA astrocytes treated with gambogic acid; assay type: cell-based, human; conditions: SVGA cells, gambogic acid 0.25 and 0.5 μM
Description: FIG. 57 depicts that endogenous levels of CTXLP in human astrocytes can be depleted in the presence of gambogic acid. Human astrocytic cell line SVGA were treated with increasing doses of gambogic acid in the low micromolar range (0.25 and 0.5 μM).

[6] = system: NOGO-A; conditions: ReNcell CX neurospheres, 24 hours, 1 ng/ml TNFα; for TNFα-induced NOGO-A expression in human neurospheres: 0.5 μM GA
Description: as §1

[7] = system: interferon response elements (ISREs) within the ERVK promoter (5′ LTR); assay type: binding, human
[8] = system: ERVK CTXLP; conditions: ReNcell-derived neurons, 24 hours, n=1
Description: ReNcell-derived neurons were treated with increasing doses of pro-inflammatory cytokines TNFα or LIGHT for 24 hours.

[9] = molecular target: T1, NOGO-A (Homo sapiens, UniProt Q9NQC3); conditions: patients with ALS, intravenous infusions; cited from earlier work
T1 construct: host or cells: ALS patients (clinical trials cited from the literature)
T1 sequence (Q9NQC3 1-1192): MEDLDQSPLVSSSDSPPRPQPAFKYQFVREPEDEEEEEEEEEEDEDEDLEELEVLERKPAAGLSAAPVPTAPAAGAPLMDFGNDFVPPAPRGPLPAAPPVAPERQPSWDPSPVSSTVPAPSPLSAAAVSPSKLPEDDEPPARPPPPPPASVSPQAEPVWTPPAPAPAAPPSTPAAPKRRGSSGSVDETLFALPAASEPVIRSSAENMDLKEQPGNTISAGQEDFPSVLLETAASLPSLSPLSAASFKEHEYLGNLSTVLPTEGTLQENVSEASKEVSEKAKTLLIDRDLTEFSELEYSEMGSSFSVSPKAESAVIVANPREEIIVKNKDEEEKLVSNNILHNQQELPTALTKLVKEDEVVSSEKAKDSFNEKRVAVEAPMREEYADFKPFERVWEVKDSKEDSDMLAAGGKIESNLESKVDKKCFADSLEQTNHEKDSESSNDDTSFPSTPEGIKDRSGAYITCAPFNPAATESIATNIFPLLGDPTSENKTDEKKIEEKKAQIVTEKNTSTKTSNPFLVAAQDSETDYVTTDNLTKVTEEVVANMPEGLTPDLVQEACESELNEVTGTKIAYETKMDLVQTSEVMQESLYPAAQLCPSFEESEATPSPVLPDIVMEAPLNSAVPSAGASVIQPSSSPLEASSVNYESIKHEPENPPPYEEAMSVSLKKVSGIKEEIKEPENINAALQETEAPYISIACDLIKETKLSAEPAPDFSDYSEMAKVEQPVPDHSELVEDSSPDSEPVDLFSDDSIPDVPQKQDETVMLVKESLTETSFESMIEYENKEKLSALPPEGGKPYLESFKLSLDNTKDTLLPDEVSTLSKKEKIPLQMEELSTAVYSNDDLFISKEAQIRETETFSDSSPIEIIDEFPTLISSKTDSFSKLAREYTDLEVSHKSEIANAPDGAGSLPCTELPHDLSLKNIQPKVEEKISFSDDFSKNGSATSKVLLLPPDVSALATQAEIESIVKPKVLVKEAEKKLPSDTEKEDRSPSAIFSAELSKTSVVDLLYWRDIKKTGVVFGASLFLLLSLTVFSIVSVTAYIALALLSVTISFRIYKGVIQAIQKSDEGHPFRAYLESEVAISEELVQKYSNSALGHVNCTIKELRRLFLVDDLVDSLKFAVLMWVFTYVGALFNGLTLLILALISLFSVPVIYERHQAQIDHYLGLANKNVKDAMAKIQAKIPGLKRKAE

[10] = system: CaV2.2 calcium channel-associated transcription regulator (CCAT); assay type: cell-based, human
[11] = system: NF-κB p65; assay type: cell-based
[12] = system: IRF7; assay type: cell-based
[13] = system: NF-κB p65; assay type: cell-based; remark: listed apart in the source
[14] = system: NF-κB p65 and p50 proteins; assay type: cell-based, human

[Cl-].[K+] [KCI]
CaV1.2 CCAT nuclear localization / nuclear CCAT levels in neurons [1]: decreased nuclear CCAT levels

[Ca+2].[Cl-].[Cl-] [calcium chloride]
caspase-3 expression in CTXLP-treated SVGA cells in the presence of excess calcium [2]: blocked

N[C@@H](CCC(=O)O)C(=O)O [glutamate]
CaV1.2 CCAT nuclear localization / nuclear CCAT levels in neurons [1]: decreased nuclear CCAT levels

CC(C)=CCC[C@]1(C)C=Cc2c(O)c3c(c(CC=C(C)C)c2O1)O[C@]12C(=C[C@@H]4C[C@H]1C(C)(C)O[C@@]2(C/C=C(/C)C(=O)O)C4=O)C3=O [Gambogic acid, gambogic acid]
TNFα-induced CTXLP expression in human neurospheres [3]: blocks
TNFα-induced CTXLP expression in human neurospheres ([3]; listed as gambogic acid): reduce inducible CTXLP expression
NOGO-A expression in NCCIT cells [4]: potent inhibitor of Nogo-A
NOGO-A expression in NCCIT cells ([4]; listed as GA): dose-dependently reduces
endogenous levels of CTXLP in human astrocytes [5]: depleted
TNFα-induced NOGO-A expression in human neurospheres ([6]; listed as GA): blocked
TNFα-induced NOGO-A expression in human neurospheres ([6]; listed as gambogic acid): ameliorate

O=C(O)CN(CCOCCOCCN(CC(=O)O)CC(=O)O)CC(=O)O [EGTA]
CaV1.2 CCAT nuclear localization / nuclear CCAT levels in neurons [1]: promote

TNFα
CTXLP expression in neurospheres on TNFα [3]: enhances
CTXLP chromatin binding on cytokine stimulation [7]: Notable increase
cytokine dose giving optimal enhancement of CTXLP expression (90 kDa form) [8]: 1 ng/mL
NOGO-A expression in neurospheres on TNFα [6]: enhances

B1: Ozanezumab: human anti-Nogo-A antibody from GlaxoSmithKline (antibody, chains of the INN, looked up, V domains shown)
VH: QVQLVQSGAEVKKPGASVKVSCKASGYTFTSYWMHWVRQAPGQGLEWIGNINPSNGGTNYNEKFKSKATMTRDTSTSTAYMELSSLRSEDTAVYYCELMQGYWGQGTLVTVSS
VL: DIVMTQSPLSNPVTLGQPVSISCRSSKSLLYKDGKTYLNWFLQRPGQSPQLLIYLMSTRASGVPDRFSGGGSGTDFTLKISRVEAEDVGVYYCQQLVEYPLTFGQGTKLEIK
outcome of Phase II clinical ALS trials [9]: negative results

B2: LIGHT: lymphotoxin-like inducible member of the TNF superfamily protein, pro-inflammatory cytokine (protein, UniProt O43557 83-240, looked up)
Tumor necrosis factor ligand …: LIQERRSHEVNPAAHLTGANSSLTGSGGPLLWETQLGLAFLRGLSYHDGALVVTKAGYYYIYSKVQLGGVGCPLGLASTITHGLYKRTPRYPEELELLVSQQSPCGRATSSSRVWWDSSFLGGVVHLEAGEKVVVRVLDERLVRLRDGTRSYFGAFMV
cytokine dose giving optimal enhancement of CTXLP expression (90 kDa form) [8]: 10 ng/mL

B3: ERVK SU: ERVK envelope surface unit protein devoid of the CTXLP domain (SEQ ID NO: 3) (protein)
chain: MNPSEMQRKAPPRRRRHRNRAPLTHKMNKMVTSEEQMKLPSTKKAEPPTWAQLKKLTQLATKYLENTKVTQTPESMLLAALMIVSMVVSLPMPAGAAAANYTYWAYVPFPPLIRAVTWMDNPIEIYVNDSVWVPGPTDDCCPAKPEEEGMMINISIGYRYPPICLGRAPGCLMPAVQNWLVEVPTVSPISRFTYHMVSGMSLRPRVNYLQDFSYQRSLKFRPKGKPCPKEIPKESKNTEVLVWEECVANSAVILQNNEFGTLIDWAPRGQFYHNCSGQTQSCPSAQVSPAVDSDLTESLDKHKHKKLQSFYPWEWGEKGISTARPKIISPVSGPEHPELWRLTVASHHIRIWSGNQTLETRDRKPFYTIDLNSSLTVPLQSCVKPPYMLVVGNIVIKPDSQTITCENCRLLTCIDSTFNWQHRILLVRAREGVWIPVSMDRPWEASPSVHILTEVLKGVLNRSKR
modifications: Endogenous retrovirus K (from homo sapiens)
CaV2.2 CCAT (75 kDa) expression in SVGA cells [10]: not
mRNA expression of NF-κB p65 [11]: marked increase
mRNA expression of IRF7 [12]: neither protein was able to trigger an upregulation
NF-κB p65 protein expression [13]: unable
continued replication / cell density at later time points [2]: able to continue to replicate
NF-κB p65 and p50 protein expression [14]: not
